ChEMBL document CHEMBL4382269, “Discovery of Potent, Efficient, and Selective Inhibitors of Phosphoinositide 3-Kinase δ through a Deconstruction and Regrowth Approach” (J Med Chem, 2018)

Columns and labels:
[1] = target: Phosphatidylinositol 4,5-bisphosphate 3-kinase catalytic subunit beta isoform (Homo sapiens, UniProt P42338); assay: Inhibition of PI3Kbeta (unknown origin) using PIP2 as substrate preincubated for 15 mins followed by substrate addition measured after 60 mins by HTRF method
[2] = target: Phosphatidylinositol 4,5-bisphosphate 3-kinase catalytic subunit alpha isoform (Homo sapiens, UniProt P42336); assay: Inhibition of PI3Kalpha (unknown origin) using PIP2 as substrate preincubated for 15 mins followed by substrate addition measured after 60 mins by HTRF method
[3] = target: T1, Phosphatidylinositol 4,5-bisphosphate 3-kinase catalytic subunit delta isoform (Homo sapiens, UniProt O00329); assay: Inhibition of PI3Kdelta (unknown origin) using PIP2 as substrate preincubated for 15 mins followed by substrate addition measured after 60 mins by HTRF method
T1 sequence (O00329 whole entry): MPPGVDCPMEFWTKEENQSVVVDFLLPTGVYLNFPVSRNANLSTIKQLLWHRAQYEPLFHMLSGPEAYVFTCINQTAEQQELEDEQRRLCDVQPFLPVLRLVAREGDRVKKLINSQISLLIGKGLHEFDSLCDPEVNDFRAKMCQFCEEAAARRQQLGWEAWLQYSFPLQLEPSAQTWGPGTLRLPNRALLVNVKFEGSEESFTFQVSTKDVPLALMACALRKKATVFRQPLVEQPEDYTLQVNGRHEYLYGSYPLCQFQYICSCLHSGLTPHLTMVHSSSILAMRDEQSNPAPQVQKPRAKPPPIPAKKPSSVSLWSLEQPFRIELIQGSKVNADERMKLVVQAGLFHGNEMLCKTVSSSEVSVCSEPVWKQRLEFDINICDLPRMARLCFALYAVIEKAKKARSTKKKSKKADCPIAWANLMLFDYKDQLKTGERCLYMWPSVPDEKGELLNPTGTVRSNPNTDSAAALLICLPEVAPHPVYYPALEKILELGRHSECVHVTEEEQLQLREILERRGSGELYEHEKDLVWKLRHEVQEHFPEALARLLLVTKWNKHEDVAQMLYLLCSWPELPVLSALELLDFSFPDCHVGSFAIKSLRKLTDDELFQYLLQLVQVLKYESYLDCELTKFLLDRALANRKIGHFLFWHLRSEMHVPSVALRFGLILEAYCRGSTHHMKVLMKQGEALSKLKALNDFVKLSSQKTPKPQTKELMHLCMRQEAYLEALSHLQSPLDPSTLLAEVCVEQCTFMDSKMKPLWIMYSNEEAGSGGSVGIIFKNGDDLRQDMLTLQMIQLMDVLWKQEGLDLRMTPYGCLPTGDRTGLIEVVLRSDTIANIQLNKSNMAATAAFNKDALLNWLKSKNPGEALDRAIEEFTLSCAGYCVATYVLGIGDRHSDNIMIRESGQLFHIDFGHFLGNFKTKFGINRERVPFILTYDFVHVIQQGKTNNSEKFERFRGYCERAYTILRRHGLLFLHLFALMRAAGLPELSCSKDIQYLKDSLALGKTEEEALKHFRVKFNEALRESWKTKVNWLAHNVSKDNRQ

[4] = target: Phosphatidylinositol 4,5-bisphosphate 3-kinase catalytic subunit gamma isoform (Homo sapiens, UniProt P48736); assay: Inhibition of PI3Kgamma (unknown origin) using PIP2 as substrate preincubated for 15 mins followed by substrate addition measured after 60 mins by HTRF method
Phosphatidylinositol 4,5-bisphosphate 3-kinase catalytic subunit gamma isoform, sequence (P48736 whole entry, canonical isoform): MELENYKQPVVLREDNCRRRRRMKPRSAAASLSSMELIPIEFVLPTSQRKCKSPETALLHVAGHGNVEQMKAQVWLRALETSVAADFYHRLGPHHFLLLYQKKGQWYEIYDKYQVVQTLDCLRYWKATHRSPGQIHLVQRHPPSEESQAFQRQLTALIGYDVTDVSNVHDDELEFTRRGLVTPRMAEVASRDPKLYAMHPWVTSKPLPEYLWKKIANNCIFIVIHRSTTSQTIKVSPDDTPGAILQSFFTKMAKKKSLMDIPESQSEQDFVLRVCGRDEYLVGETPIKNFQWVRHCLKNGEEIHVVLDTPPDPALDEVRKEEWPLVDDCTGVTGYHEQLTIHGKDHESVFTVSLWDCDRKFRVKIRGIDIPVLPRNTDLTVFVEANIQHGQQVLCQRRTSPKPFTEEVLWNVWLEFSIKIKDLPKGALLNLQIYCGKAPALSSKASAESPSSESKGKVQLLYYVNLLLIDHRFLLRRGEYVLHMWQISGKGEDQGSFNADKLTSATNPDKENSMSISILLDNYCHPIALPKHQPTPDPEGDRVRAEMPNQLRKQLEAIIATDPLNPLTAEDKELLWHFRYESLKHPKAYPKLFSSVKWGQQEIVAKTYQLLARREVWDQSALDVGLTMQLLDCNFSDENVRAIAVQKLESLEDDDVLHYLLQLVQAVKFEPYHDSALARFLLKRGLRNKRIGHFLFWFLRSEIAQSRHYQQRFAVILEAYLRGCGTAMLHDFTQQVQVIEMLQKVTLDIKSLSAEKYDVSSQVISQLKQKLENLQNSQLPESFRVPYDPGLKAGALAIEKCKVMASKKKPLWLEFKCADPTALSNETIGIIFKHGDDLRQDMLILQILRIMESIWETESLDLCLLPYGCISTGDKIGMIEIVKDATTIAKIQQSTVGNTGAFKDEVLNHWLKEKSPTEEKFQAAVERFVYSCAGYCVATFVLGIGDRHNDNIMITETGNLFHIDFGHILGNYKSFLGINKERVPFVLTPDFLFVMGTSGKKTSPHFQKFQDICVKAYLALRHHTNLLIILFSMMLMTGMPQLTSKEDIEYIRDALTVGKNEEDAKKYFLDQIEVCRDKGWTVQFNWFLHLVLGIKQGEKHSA

Phosphatidylinositol 4,5-bisphosphate 3-kinase catalytic subunit alpha isoform, sequence (P42336 whole entry, canonical isoform): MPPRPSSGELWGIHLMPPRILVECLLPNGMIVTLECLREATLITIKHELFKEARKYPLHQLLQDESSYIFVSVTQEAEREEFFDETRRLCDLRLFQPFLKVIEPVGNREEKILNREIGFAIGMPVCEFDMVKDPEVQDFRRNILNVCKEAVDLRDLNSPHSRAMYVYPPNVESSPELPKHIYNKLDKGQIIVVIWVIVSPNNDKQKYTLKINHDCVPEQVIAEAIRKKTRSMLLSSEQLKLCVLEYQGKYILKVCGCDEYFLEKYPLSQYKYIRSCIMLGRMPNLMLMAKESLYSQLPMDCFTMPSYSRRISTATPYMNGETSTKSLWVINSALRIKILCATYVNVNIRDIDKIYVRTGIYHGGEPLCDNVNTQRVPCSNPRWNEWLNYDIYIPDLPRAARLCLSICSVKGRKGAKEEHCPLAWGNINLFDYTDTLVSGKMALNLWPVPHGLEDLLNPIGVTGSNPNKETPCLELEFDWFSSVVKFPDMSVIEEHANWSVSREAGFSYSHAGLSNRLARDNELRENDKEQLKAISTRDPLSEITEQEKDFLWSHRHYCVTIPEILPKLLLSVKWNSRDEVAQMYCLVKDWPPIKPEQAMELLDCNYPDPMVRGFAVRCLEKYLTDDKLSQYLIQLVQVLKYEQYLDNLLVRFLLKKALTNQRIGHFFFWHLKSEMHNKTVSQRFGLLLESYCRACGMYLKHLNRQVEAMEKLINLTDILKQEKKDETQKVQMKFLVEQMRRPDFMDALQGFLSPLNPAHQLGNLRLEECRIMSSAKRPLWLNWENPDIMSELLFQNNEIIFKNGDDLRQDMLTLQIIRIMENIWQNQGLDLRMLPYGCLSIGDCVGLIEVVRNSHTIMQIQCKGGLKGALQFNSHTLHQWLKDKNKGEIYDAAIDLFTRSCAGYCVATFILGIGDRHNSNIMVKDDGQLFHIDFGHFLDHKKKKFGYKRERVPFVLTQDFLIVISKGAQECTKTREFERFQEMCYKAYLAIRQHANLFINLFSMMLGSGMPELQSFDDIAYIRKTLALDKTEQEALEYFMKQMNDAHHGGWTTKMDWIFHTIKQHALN
Phosphatidylinositol 4,5-bisphosphate 3-kinase catalytic subunit beta isoform, sequence (P42338 whole entry, canonical isoform): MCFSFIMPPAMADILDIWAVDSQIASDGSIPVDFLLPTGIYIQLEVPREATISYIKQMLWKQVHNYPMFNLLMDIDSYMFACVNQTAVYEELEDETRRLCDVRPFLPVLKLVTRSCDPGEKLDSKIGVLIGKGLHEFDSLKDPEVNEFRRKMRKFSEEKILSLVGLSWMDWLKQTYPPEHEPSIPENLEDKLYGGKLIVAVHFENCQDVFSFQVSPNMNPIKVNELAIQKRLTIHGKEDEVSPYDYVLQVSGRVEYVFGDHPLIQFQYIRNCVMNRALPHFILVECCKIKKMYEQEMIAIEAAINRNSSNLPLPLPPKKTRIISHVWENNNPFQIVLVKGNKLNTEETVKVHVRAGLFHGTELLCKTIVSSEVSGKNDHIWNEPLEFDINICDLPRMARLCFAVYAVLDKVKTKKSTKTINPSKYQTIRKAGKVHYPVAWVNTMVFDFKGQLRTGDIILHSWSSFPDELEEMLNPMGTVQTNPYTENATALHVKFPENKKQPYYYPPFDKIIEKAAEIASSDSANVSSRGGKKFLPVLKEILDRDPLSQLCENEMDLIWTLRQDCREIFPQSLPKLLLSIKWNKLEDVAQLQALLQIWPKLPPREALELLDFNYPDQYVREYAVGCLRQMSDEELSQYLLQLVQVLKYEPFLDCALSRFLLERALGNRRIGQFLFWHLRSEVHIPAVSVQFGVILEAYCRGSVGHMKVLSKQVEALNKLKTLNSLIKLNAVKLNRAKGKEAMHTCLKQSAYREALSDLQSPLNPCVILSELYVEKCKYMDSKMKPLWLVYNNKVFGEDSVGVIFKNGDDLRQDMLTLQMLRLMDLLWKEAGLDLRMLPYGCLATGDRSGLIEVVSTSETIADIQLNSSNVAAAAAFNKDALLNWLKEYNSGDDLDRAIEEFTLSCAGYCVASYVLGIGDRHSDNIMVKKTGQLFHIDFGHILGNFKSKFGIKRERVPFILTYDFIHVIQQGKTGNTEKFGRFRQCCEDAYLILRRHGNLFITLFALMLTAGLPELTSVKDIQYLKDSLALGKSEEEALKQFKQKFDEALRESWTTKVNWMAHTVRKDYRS

| IC50 [1] [nM] | IC50 [2] [nM] | IC50 [3] [nM] | IC50 [4] [nM] | SMILES |
| --- | --- | --- | --- | --- |
| 158 | 1580 | 126 | 200 | CS(=O)(=O)Nc1cc(-c2cnc(N)nc2)cnc1Cl |
| 126 | 501 | 10 | 501 | O=S(=O)(Nc1cc(C2=CCOCC2)cnc1Cl)c1ccccc1 |
| 2510 | 398 | – | 316 | COc1ncc(-c2cc(-c3ncc(CN4C[C@@H](C)O[C@@H](C)C4)o3)c3cn[nH]c3c2)cc1NS(C)(=O)=O |
